Measurements: patent US12201679B2, “Epitope-targeted peptide immunostimulants” (priority 2019, dated 2025)
“Also recorded” adds a separate entry of the source. Bridge positions count the residues as written; N and C are the ends. Square brackets hold non-standard residues; d marks the D form. Triazole bridges read from a SMILES are 1,4-linked. Ends that are not written are not given here. Peptide text beside a SMILES is read from it. Lys(N3) = [N-]=[N+]=NCCCC[C@H](N)C(=O)O; Pra = C#CC[C@H](N)C(=O)O

Columns and labels:
[1] = Isocratic point, elution from C18 prep-scale column; format: physicochemical
Method: PCC compounds were purified on a Waters Autopurification system, which isolated compounds based on MS peaks corresponding to protonated [M+1H]^+ and [M+2H]^2+, and/or sodium adducts [M+Na]^+ and [M+2Na]^2+. The isocratic points of PCCs were determined based on the elution of the compound from a C18 prep-scale column. Synthetic epitopes were either purified on the Waters Autopurification System, or by semi-preparative HPLC and then using matrix-assisted laser desorption/ionization mass spectroscopy to identify fractions with the desired m/z ratio. The resulting peptides were lyophilized, the yield determined by mass difference or UV-visible absorbance, and resuspended at a concentration of up to 10 mM peptide in DMSO. Peptides were stored at −80° C. before thawing for each use.

[2] = tested on: K. pneumoniae (strains BAA 1705 & 2146); test: Whole-cell ELISA, biotinylated PCC, multidrug-resistant K. pneumoniae; format: cell-based, Klebsiella pneumoniae; details: for binding selectivity towards MrkA-expressing K. pneumoniae cells versus E. coli and S. typhimurium: whole-cell ELISA, FIG. 5C
Method: Detection of the binding of biotinylated PCCs to bacterial surface was performed as follows. 10^8 bacteria from a culture grown overnight were used for each test. […] After washing thrice with PBS to remove unbound PCCs, bacteria were incubated with Streptavidin-HRP (1:1000) for 1 h at 37° C. Bacteria were washed thoroughly and the TMB reagent was added until visible coloration was observed. The reaction was quenched using 2N H2SO4 and absorbance was measured at 450 nm.

[3] = biological target: full-length recombinant MrkA protein (Klebsiella pneumoniae, UniProt P12267); format: binding
Text: HPraGly is present before X1 in each peptide and Az4 follows X5 in each peptide.

MrkA protein = MrkA protein (Klebsiella pneumoniae, UniProt P12267); test: Sandwich ELISA, MrkA binding in mouse sera; details: MrkA 250 nM in 10 and 100% mouse sera
Text: By comparison, the addition of polyarginine tags reduced the IP to near 40% without substantial loss in MrkA avidity (three leftmost data points in FIG. 4B).

[4] = tested on: K. pneumoniae cells (strain BAA 1705); test: Gentamicin protection assay: phagocytosis and opsonophagocytic killing (OPK) by macrophages; format: cell-based, Klebsiella pneumoniae; details: for phagocytosis at 1 h, DNP-tagged AR-PCC plus anti-DNP (words): FIG. 7B
Method: It also tested whether DNP-conjugated EPIs could promote the opsonophagocytic killing (OPK) of K. pneumoniae by macrophages. This was tested by using an OPK assay. Briefly, K. pneumoniae cells were treated with EPI and then anti-DNP antibody before being exposed to macrophages for either 6 or 24 hours. During this incubation period, macrophages that recognize K. pneumoniae cells will phagocytose them, and phagocytosed bacteria will remain viable for up to 6 hours, but within 24 hours are rendered inviable by OPK. Thus, macrophages were isolated after 6 and 24 hours of incubation with K. pneumoniae, lysed them, and plated and grew the lysate, which yielded bacterial colonies that reflect the phagocytosis (at 6 hrs) or OPK (at 24 hrs) of bacteria.
Given that cy(LLFFF)-DNP (SEQ ID NO:5) recruits antibodies to K. pneumoniae surfaces, it was expected that K. pneumoniae opsonized in this manner would be more susceptible to phagocytosis by macrophages. AR-PCC-driven phagocytosis and OPK were quantified by a gentamicin protection assay, as depicted in FIG. 7A. For this assay, K. pneumoniae cells (strain BAA 1705) were treated with cy(LLFFF)-DNP (SEQ ID NO:5), opsonized by anti-DNP antibodies, and then incubated with murine bone-marrow-derived macrophages (BMDMs). BMDMs were subsequently exposed to a solution containing gentamicin, to which K. pneumoniae strain BAA 1705 is susceptible, to kill any extracellular bacteria. Phagocytosed bacteria remain viable inside BMDMs for at least 1 h, yet are rendered inviable after 24 h by OPK (FIG. 13). Macrophages harvested at 1 h and 24 h were lysed and plated to generate bacterial colonies, which were enumerated to quantify phagocytosis and OPK.
Klebsiella pneumoniae BAA1705 was treated with DNP-PCCs followed by incubation with anti-DNP antibody, as described above in the “Cell-Based ELISAs” section. These opsonized bacteria were then used to infect BMDMs at a multiplicity of infection of 50 for 0.5 h at 37° C. Bacteria were then washed by using RPMI 1640 Media and BMDMs were left in cell culture medium containing gentamicin (100 μg/ml). After 1 h and 24 h BMDMs were washed to remove gentamicin and intracellular bacteria were harvested by lysing BMDMs in RPMI media containing 0.2% Triton X 100. Bacterial CFUs were enumerated by plating onto LB agar. Bacterial counts at 1 h indicated the degree of opsonization while those at 24 h served as a measure of microbicidal activity of macrophages. For these measurements, anti-MrkA antibody and K. pneumoniae antiserum were used at dilutions of 5 μg/mL each.

Salmonella typhimurium = test: Whole-cell ELISA, biotinylated PCC, S. typhimurium; format: cell-based; details: biotinylated PCC at 5 μM, FIG. 5C
Method: (§1) Whole-cell ELISA data in FIG. 5C show strong signal from the two strains of K. pneumoniae (BAA 1705 and BAA 2146) but only weak signals from Escherichia coli (E. coli) or Salmonella typhimurium (S. typhimurium) cells. […] In these tests, droplets of phosphate buffered solution containing live bacteria or heat-killed bacteria and various concentrations of (NH4)2SO4 at 10 m or 30 m following mixing were imaged. Aggregation in each droplet was assessed by visual inspection and scored as indicating non-aggregated, low levels of aggregation, or extensive aggregation. All droplets were on a single glass slide and image acquisition of all droplets took less than a minute for each 10 m and 30 m time point.
(§2) Detection of the binding of biotinylated PCCs to bacterial surface was performed as follows. 10^8 bacteria from a culture grown overnight were used for each test. Bacteria were incubated with PBS containing 1% BSA (PBS-BSA) for 1 h at 37° C., washed once with PBS, and then incubated with 5 μM of the biotinylated PCC in PBS-BSA for 1 h at 37° C. After washing thrice with PBS to remove unbound PCCs, bacteria were incubated with Streptavidin-HRP (1:1000) for 1 h at 37° C. Bacteria were washed thoroughly and the TMB reagent was added until visible coloration was observed. The reaction was quenched using 2N H2SO4 and absorbance was measured at 450 nm.

[5] = tested on: wild type KPPR1 (ATCC 43816) cells; test: Whole-cell ELISA, biotinylated PCC, wild type KPPR1; format: cell-based, Klebsiella pneumoniae; details: biotinylated PCC 5 μM down to 5 nM, G-CAA media
Method: In this assay, bacteria are exposed to biotinylated PCC ligands, then SAv-horseradish peroxidase (SAv-HRP), and then developed to produce a colorometric signal that correlates with SAv-HRP binding.
Whole-cell ELISA assays were conducted on the wild type version of the clinically-relevant strain of K. pneumoniae, KPPR1 (ATCC 43816). Wild type KPPR1 cells were cultured in G-CAA media to promote fimbrial expression (54), and MrkA expression in KPPR1 was confirmed by a western blot (FIG. 5B inset, full blot in FIG. 9).
as §2

Escherichia coli = test: Whole-cell ELISA, biotinylated PCC, E. coli; format: cell-based; details: biotinylated PCC at 5 μM, FIG. 5C
Method: as §1, §2

[6] = tested on: MrkA-knockout KPPR1 cells; test: Whole-cell ELISA, biotinylated PCC, MrkA-knockout KPPR1; format: cell-based, Klebsiella pneumoniae
Method: ELISA signals were only observed for K. pneumoniae cells (strain BAA 1705) cultured in G-CAA (FIG. 11A), when treated with PCCs at concentrations of 5 μM or lower.
as §2

SynEp 1 = SynEp 1 (Klebsiella pneumoniae, UniProt P12267, V41X); test: Epitope selectivity sandwich ELISA, immobilized SynEp 1; details: DNP-conjugated ligand at 500 nM, background biotin-PEG6
[7] = tested on: K. pneumoniae cells, BAA 1705 and BAA 2146; test: Whole-cell ELISA, anti-DNP recruitment to bacterial cell surfaces; format: cell-based, Klebsiella pneumoniae; details: cy(LLFFF)-DNP 5 or 10 μM; dummy cy(HNGPT)-DNP 50 and 100 μM; plus anti-DNP
Method: FIG. 12 is a plot of 450 nm absorbances obtained from a cell-based ELISA assay conducted on two strains of K. pneumoniae cells, BAA 1705 (black) and BAA 2146 (orange), that were either untreated or opsonized by EPIs (AR-PCCs) and/or antibodies. […] This establishes EPI-driven opsonization by cy(LLFFF)-DNP (SEQ ID NO:5).
The protocol for detecting anti-DNP recruitment to bacterial cell surfaces is as follows. Bacteria were incubated with the desired concentration of DNP-conjugated PCCs in PBS-BSA for 1 h at 37° C. Residual PCCs were washed off by using PBS-BSA and bacteria were incubated with anti-DNP antibody (1:1000) for 1 h at 37° C. After washing, bacteria were incubated with HRP conjugated secondary antibody (Bio-Rad) at a dilution of 1:10,000 for 1 h at 37° C. Unbound antibody was washed off by using PBS-BSA and the cells were then developed by using TMB reagent. The reaction was quenched using 2N H2SO4 and absorbance was measured at 450 nm. Anti-MrkA antibody was procured from Biorbyt (orb51318) and used at a concentration of 5 μg/mL, and K. pneumoniae antiserum was obtained from abcam (ab20947) and used at a concentration of 5 μg/mL.

[8] = strain BAA 1705, PCC 5 μM to 5 nM

| Molecule | isocratic point (IP) [1] [%] | reduction (improvement) in IP versus cy(LLFFF) [1] [%] | binding selectivity towards MrkA-expressing K. pneumoniae cells versus E. coli and S. typhimurium [2] | stronger affinity to MrkA over cy(LLFFF) ([3]; ratio of ELISA signals, FIG. 4B) [%] | binding to MrkA protein in mouse sera (MrkA protein) | phagocytosis at 1 h, DNP-tagged AR-PCC plus anti-DNP (words) [4] | phagocytosis at 1 h, DNP-tagged AR-PCC plus anti-DNP (words) ([4]; listed as cy(LLFFF)-R6) | whole-cell ELISA signal, S. typhimurium (Salmonella typhimurium) | whole-cell ELISA binding at high PCC concentration ([2]; strain BAA 1705, 50 μM PCC, LB or G-CAA) | whole-cell ELISA 450 nm absorbance, cells cultured in G-CAA (high MrkA) [2, 8] | whole-cell ELISA 450 nm absorbance, cells cultured in LB (low MrkA) [2, 8] | binding to full-length MrkA compared to cy(LLFFF) ([3]; sandwich ELISA, alanine scan and analogues) | whole-cell ELISA signal, wild type KPPR1 [5] | whole-cell ELISA signal, E. coli (Escherichia coli) | whole-cell ELISA signal, MrkA-knockout KPPR1 [6] | CFU, DNP-conjugated EPI plus anti-DNP, macrophages harvested at 6 hrs ([4]; 6 hrs) | cell counts, DNP-conjugated EPI only (no antibody), macrophages harvested at 6 hrs ([4]; 6 hrs) | cell counts at 24 h (OPK) ([4]; 24 h of incubation) | ELISA signal on SynEp 1 (SynEp 1) | 450 nm absorbance, anti-DNP opsonization of K. pneumoniae [7] |
| --- | --- | --- | --- | --- | --- | --- | --- | --- | --- | --- | --- | --- | --- | --- | --- | --- | --- | --- | --- | --- |
| cy(LLFFF)+R6 (LLFFFRRRRRR; also: cyclic over residues 1-5, ring closure not given here) | ~40 | ~35 | similarly high selectivity | 22 | binds MrkA protein in the context of sera; also recorded: bound MrkA protein in solutions of 10 and 100% mouse sera | also enhanced phagocytosis | comparable to that of cy(LLFFF)-DNP | – | – | – | – | – | – | – | – | – | – | – | – | – |
| CC(C)C[C@@H]1NC(=O)[C@H](CC(C)C)NC(=O)[C@@H](N)Cc2cn(nn2)CCCC[C@@H](C(=O)O)NC(=O)[C@H](Cc2ccccc2)NC(=O)[C@H](Cc2ccccc2)NC(=O)[C@H](Cc2ccccc2)NC1=O [cy(LLFFF)] (H-[Pra]LLFFF[Lys(N3)]-OH; triazole 1-7) | – | – | excellent binding selectivity | – | – | – | – | small absorbances; also recorded: weak signals | bound K. pneumoniae cells regardless of MrkA-expression level; also recorded: strong and comparable ELISA signals | strong absorbances | near-baseline absorbances | highest affinity | strong signals; also recorded: binds wild type MrkA-expressing KPPR1 cells | small absorbances; also recorded: weak signals | comparable to baseline; also recorded: but not MrkA-knockout KPPR1 | more than 80,000 CFU | ~35,000 | little to no cell counts | Negative signals | much larger signal |
